# According to ChEMBL document CHEMBL1201862, “PubChem BioAssay data set” (2004):
# The source made the active and inactive calls. For most assays here, no stated cut-off is given here; in the data, actives have a measured IC50 and inactives only a lower limit.
# Tests used:
# SUMO-activating enzyme [1] = biological target: T1, SUMO-activating enzyme (Homo sapiens, UniProt Q9UBT2); assay: inhibitors of in vitro SUMOylation cascade, primary screen, biochemical, HTRF, uHTS (AID 2006); type: protein-complex assay
# T1 sequence (Q9UBE0 whole entry): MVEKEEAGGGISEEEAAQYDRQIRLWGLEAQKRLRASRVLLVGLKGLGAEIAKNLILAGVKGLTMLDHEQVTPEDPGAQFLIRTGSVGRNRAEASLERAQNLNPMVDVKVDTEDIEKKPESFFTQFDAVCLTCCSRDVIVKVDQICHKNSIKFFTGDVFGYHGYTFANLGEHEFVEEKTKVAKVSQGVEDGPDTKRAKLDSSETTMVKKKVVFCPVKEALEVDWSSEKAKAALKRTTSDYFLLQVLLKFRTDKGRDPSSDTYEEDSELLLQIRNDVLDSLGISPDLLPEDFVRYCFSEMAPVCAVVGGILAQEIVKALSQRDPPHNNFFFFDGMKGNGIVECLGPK
# T1 sequence (Q9UBT2 whole entry): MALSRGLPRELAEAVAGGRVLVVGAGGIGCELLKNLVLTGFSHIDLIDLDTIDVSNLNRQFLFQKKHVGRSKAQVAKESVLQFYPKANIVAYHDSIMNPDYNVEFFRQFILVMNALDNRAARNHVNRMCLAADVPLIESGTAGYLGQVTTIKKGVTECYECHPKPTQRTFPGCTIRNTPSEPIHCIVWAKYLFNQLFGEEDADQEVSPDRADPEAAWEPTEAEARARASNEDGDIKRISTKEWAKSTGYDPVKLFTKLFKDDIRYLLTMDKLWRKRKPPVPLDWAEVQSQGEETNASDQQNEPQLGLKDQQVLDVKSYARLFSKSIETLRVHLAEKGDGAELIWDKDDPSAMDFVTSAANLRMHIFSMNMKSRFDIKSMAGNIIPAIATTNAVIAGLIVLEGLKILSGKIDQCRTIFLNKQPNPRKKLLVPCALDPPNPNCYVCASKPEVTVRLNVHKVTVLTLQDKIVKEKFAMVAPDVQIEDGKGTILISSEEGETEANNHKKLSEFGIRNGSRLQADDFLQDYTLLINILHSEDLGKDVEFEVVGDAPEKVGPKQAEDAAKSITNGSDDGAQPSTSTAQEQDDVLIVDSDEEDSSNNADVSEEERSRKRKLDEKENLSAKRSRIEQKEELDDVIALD
# SUMO E1/E2 = SUMO E1/E2 (Homo sapiens, UniProt P63279+Q9UBE0+Q9UBT2); assay: SAR analysis of SUMOylation using HTRF in an in-Vitro dose response assay. [Related pubchem assays (depositor defined):AID2006, AID2011, AID2018, AID2069, AID2658]; type: functional
# SUMO E1/E2, sequence (Q9UBE0 whole entry, the tested form may be a part): as the sequence (Q9UBE0 whole entry) above
# SUMO E1/E2, sequence (Q9UBT2 whole entry, the tested form may be a part): as the sequence (Q9UBT2 whole entry) above
# SUMO E1/E2, sequence (P63279 whole entry, the tested form may be a part): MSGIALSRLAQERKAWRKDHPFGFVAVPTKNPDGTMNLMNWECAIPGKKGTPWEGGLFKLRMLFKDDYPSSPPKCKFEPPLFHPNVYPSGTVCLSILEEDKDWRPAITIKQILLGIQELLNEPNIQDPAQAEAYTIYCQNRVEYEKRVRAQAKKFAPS
# [2] = biological target: T2, Carboxy-terminal domain RNA polymerase II polypeptide A small phosphatase 1 (Homo sapiens, UniProt Q9GZU7); assay: inhibitors of CTDSP1, concentration-response testing, biochemical assay, absorbance-based, actives from ultra-high-throughput screening (AID 540297); type: functional
# T2 sequence (Q9GZU7 whole entry): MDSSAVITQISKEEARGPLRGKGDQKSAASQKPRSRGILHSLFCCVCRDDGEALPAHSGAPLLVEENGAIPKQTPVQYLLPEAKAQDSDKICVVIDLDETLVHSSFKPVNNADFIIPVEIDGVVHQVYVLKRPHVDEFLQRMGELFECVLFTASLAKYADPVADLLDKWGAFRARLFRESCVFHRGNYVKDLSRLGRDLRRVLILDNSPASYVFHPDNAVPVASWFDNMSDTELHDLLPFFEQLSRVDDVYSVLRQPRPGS
# SUMO-activating enzyme [3] = biological target: T1, SUMO-activating enzyme; assay: SUMOylation inhibitor hit validation, confirmation, SUMOylation inhibitor project, biochemical, AlphaScreen (AID 2018); type: functional
# HEK293 [4] = assay: cells; type: functional, cell-based; settings: Homo sapiens
# HEK293 [5] = assay: NOD1 signaling inhibitors, primary screen, cell-based, luminescence, uHTS (AID 1578); type: functional; settings: Homo sapiens
# HEK293 [6] = assay: cells; type: functional, cell-based; settings: Homo sapiens; remark: listed apart in the source
# HEK293 [7] = assay: NOD2 signaling inhibitors in MDP-stimulated cells, cell-based, uHTS, luminescence (AID 2001); type: functional; settings: Homo sapiens
# [8] = biological target: Lysine-specific demethylase 4C (Homo sapiens, UniProt Q9H3R0); assay: GASC-1 (JMJD2C) histone demethylase inhibitors, dose response, biochemical, DELFIA europium, cherry-picked samples (AID 488835); type: functional
# Lysine-specific demethylase 4C, sequence (Q9H3R0 whole entry): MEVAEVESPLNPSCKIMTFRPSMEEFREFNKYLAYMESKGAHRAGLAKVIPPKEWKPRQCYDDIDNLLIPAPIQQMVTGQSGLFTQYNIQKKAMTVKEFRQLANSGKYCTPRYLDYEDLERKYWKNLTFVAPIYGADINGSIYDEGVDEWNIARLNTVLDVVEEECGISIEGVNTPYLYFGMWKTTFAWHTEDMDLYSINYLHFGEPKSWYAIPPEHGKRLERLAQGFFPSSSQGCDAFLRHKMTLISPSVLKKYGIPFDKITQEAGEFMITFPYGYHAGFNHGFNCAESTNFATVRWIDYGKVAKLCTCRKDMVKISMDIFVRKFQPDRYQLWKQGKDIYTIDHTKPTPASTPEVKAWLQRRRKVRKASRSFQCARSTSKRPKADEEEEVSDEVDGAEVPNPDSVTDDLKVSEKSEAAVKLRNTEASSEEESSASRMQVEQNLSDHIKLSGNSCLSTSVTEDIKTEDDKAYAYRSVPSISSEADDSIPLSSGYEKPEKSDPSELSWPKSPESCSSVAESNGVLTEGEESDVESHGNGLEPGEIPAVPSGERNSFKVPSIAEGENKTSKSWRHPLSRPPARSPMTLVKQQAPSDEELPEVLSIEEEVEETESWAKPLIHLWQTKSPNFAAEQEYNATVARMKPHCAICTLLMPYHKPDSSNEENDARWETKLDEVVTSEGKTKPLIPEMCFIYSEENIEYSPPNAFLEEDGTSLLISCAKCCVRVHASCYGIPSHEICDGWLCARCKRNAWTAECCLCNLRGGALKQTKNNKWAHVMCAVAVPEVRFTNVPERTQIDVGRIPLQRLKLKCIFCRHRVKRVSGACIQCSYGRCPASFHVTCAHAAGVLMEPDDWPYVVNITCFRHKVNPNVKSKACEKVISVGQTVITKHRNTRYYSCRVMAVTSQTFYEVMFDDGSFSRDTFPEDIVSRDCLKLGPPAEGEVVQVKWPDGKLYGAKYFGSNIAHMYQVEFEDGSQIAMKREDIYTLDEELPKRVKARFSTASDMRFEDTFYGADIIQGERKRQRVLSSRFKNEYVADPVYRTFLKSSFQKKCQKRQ
# [9] = biological target: T3, Tyrosine-protein phosphatase non-receptor type 22 (Homo sapiens, UniProt Q9Y2R2); type: functional
# T3 sequence (Q9Y2R2 whole entry): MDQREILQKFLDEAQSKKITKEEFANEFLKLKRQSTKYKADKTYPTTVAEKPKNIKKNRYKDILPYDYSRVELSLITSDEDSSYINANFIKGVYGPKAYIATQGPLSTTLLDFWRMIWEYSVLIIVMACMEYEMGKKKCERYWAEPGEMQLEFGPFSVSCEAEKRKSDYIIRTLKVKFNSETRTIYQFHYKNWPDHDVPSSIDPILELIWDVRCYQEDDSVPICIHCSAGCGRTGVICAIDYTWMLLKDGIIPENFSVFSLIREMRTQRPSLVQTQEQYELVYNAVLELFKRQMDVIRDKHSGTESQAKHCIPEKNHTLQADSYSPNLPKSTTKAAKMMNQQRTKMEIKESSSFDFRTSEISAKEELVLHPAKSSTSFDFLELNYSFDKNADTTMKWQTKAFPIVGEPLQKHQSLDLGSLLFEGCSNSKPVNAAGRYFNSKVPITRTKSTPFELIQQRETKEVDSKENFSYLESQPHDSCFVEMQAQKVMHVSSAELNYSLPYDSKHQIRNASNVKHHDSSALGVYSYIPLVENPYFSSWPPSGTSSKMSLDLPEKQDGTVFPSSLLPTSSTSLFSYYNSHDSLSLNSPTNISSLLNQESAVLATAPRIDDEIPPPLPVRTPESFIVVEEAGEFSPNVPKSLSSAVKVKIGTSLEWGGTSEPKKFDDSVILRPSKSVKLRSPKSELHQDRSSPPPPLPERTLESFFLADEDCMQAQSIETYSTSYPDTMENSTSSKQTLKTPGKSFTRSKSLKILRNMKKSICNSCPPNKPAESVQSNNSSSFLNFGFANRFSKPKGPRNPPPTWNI
# [10] = biological target: T4, Tyrosine-protein phosphatase non-receptor type 7 (Homo sapiens, UniProt P35236); type: functional
# T4 sequence (P35236 whole entry): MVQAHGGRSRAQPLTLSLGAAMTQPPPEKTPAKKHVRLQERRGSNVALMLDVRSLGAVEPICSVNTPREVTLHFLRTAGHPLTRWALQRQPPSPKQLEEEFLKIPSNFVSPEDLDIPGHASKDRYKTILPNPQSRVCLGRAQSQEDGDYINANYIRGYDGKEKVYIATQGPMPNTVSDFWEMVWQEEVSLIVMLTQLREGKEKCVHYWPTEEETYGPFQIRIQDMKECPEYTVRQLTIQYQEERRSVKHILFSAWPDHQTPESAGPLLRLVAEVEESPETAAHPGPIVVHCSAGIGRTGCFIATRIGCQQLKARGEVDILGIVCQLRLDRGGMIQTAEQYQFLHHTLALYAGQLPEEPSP
# [11] = biological target: T3, Tyrosine-protein phosphatase non-receptor type 22; type: functional; remark: listed apart in the source
# [12] = HepG2 cell cytotoxicity, dose response, cytotoxicity control for Shn3 inhibitor project, CellTiter-Glo, cherry-picked (AID 624134); type: functional, cell-based
# [13] = biological target: T5, Nucleotide-binding oligomerization domain-containing protein 1 (Homo sapiens, UniProt Q9Y239); assay: NOD1 signaling inhibitors, SAR follow-up, revised (AID 2333); type: functional
# T5 sequence (Q9Y239 whole entry): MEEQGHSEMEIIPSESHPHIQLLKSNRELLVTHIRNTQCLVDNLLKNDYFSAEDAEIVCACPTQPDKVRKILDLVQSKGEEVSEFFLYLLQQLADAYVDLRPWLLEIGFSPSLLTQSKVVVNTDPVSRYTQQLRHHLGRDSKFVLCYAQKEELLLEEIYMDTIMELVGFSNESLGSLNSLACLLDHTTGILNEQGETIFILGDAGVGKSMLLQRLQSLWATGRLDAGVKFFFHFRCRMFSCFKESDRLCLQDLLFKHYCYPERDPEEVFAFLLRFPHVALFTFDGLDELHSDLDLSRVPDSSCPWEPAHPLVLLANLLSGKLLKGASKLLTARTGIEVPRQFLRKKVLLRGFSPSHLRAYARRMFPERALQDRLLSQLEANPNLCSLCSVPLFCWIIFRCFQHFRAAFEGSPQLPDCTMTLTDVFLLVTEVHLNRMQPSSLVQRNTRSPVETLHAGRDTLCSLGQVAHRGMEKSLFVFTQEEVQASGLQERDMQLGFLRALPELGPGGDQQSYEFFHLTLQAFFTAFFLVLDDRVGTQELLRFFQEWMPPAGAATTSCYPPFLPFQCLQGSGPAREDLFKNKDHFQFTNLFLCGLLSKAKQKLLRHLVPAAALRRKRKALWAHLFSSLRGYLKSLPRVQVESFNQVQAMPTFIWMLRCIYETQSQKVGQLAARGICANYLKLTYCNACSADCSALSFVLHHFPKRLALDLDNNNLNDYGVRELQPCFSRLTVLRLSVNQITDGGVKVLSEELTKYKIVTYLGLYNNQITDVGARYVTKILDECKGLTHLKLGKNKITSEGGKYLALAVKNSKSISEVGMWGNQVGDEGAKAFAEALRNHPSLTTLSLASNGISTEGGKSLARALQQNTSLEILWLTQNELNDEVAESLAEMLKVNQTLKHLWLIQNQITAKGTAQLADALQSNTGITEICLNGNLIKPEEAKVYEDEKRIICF
# [14] = biological target: Nucleotide-binding oligomerization domain-containing protein 2 (Homo sapiens, UniProt Q9HC29); assay: NOD2 signaling inhibitors, cell-based, luminescence, uHTS, HEK293 (AID 1566); type: functional
# Nucleotide-binding oligomerization domain-containing protein 2, sequence (Q9HC29 whole entry, the tested form may be a part): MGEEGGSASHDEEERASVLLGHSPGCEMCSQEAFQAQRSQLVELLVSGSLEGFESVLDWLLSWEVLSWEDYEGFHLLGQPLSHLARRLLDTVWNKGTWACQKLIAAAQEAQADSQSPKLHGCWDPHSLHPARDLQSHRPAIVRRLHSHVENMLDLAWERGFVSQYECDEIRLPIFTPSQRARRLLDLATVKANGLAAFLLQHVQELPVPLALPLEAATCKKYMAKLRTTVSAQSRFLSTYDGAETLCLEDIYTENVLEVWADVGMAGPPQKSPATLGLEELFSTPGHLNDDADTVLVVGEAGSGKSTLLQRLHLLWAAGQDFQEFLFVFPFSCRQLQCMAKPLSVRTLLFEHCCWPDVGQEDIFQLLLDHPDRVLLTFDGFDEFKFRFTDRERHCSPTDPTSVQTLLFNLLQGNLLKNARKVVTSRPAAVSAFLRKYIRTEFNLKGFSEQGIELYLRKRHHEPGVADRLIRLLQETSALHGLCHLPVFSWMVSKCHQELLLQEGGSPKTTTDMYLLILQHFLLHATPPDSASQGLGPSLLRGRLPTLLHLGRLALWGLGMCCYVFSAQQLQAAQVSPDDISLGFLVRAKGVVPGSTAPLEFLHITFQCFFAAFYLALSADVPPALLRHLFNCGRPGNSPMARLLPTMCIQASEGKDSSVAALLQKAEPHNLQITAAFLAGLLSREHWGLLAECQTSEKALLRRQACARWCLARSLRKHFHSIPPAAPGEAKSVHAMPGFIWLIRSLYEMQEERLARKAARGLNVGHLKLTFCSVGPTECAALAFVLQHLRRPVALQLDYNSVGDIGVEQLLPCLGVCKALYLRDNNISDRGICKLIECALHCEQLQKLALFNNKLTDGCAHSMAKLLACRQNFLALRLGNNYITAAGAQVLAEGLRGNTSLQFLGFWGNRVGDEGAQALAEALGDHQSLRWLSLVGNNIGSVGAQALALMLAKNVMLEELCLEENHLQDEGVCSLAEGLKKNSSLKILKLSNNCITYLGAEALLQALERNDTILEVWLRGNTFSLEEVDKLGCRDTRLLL
# [15] = control 3'UTR Renilla luciferase suppression, dose response, counter-screen for Shn3 inhibitor project, cell-based, Clone20-Shn3RL, cherry-picked (AID 624133); type: functional
# [16] = Shn3 3'UTR reporter inhibitors, dose response, cell-based, Clone20 osteoblasts, firefly luciferase, cherry-picked (AID 624132); type: functional;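 further: firefly luciferase luminescence from reporter carrying the Shn3 3'UTR in osteoblasts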
# HEK293 [17] = assay: cells; type: functional, cell-based; settings: Homo sapiens; remark: listed apart in the source
# [18] = biological target: T6, RNA-binding protein pos-1 (Caenorhabditis elegans, UniProt G5EF15); assay: inhibitors of POS-1/mex-3 RNA binding, dose response, biochemical, fluorescence polarization (AID 1964);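 further: purified POS-1 fused to maltose binding protein made in E. coli; potency of compounds blocking POS-1 binding to fluorescent RNA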
# T6 sequence (G5EF15 whole entry): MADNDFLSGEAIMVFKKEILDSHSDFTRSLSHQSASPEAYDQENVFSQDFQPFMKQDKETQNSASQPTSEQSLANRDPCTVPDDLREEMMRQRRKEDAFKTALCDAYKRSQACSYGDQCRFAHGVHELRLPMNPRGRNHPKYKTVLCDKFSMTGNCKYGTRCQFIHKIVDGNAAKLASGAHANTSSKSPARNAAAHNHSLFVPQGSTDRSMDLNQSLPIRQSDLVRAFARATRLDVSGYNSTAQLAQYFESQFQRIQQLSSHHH
# [19] = biological target: T7, Zinc finger protein mex-5 (Caenorhabditis elegans, UniProt Q9XUB2); assay: MEX-5/TCR-2 RNA interaction inhibitors, dose response, biochemical, C. elegans, fluorescence polarization (AID 1960)
# T7 sequence (Q9XUB2 whole entry): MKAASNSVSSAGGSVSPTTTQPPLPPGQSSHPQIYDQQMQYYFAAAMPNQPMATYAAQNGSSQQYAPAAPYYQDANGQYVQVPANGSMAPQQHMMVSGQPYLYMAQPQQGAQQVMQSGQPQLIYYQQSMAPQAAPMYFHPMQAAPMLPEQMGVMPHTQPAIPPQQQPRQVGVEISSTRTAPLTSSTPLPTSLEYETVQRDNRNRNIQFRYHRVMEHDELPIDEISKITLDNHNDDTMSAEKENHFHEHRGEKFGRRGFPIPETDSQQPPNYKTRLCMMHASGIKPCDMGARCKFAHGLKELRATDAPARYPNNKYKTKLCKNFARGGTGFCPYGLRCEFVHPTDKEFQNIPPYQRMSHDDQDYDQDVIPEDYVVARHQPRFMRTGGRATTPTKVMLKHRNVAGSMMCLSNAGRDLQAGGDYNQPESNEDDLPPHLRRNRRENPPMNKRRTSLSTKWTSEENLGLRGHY
# [20] = biological target: T8, Alkaline phosphatase, tissue-nonspecific isozyme (Homo sapiens, UniProt P05186); assay: human TNAP enzyme inhibitors, SAR follow-up, biochemical, luminescent, dose response (AID 1056)
# T8 sequence (P05186 whole entry): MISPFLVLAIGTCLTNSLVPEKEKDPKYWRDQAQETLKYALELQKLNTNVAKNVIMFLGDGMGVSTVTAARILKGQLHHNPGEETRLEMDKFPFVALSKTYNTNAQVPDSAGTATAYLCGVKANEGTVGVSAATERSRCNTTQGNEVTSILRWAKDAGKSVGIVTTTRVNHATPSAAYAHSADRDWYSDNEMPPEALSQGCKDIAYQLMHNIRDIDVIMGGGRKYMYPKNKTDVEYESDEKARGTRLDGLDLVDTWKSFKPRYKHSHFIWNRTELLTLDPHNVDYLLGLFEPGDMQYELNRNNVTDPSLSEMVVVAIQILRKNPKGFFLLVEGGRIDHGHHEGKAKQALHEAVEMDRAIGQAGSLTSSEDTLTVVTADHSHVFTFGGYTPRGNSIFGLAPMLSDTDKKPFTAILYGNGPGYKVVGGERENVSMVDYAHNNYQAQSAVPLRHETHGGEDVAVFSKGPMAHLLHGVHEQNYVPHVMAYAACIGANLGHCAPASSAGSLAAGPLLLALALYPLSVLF
# [21] = biological target: Alkaline phosphatase, placental type (Homo sapiens, UniProt P05187); assay: PLAP enzyme inhibitors, confirmation, biochemical, luminescence (AID 1512); type: functional
# Alkaline phosphatase, placental type, sequence (P05187 whole entry): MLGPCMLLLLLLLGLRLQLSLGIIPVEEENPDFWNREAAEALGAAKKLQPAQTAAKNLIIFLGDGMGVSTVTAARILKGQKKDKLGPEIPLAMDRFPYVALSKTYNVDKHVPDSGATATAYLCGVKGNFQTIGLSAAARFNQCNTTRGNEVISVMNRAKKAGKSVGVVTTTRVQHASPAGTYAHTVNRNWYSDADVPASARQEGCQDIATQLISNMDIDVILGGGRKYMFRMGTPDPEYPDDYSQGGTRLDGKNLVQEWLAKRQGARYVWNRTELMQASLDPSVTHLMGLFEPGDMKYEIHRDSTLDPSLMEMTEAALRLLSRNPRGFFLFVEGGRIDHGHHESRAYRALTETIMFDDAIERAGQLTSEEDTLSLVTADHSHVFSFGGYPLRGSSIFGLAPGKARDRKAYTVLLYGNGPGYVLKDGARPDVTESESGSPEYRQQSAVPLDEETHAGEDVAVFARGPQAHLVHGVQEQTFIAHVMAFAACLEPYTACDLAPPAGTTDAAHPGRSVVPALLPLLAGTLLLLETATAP
structure (smiles),measurement,setting,value
Cc1ccccc1NC(=O)Cn1c(O)c(N=NC(=O)c2ccccc2O)c2ccccc21,IC50,SUMO-activating enzyme [1],9.83 µM (active)
same,IC50,SUMO E1/E2,49.7 µM (active)
same,IC50,[2],1.23 µM (active)
same,IC50,SUMO-activating enzyme [3],8.06 µM (active)
CN(C)S(=O)(=O)N1CCC(Oc2cccc(C(=O)NC3CCCCC3)c2)CC1,IC50,HEK293 [4],11.3 µM (active)
same,EC50,HEK293 [5],6.77 µM (active)
same,IC50,HEK293 [6],18.8 µM (active)
same,IC50,HEK293 [7],17.5 µM (inactive)
O=c1cc(N2CCc3ccccc32)[nH]c(=O)n1-c1ccccc1,AC50,[8],20.7 µM (active)
COc1ccc(Cl)cc1-c1nc(N)nc(NC2CCCCC2)n1,IC50,[9],> 79.4 µM (inactive)
same,IC50,[10],> 79.4 µM (inactive)
same,IC50,[11],> 79.4 µM (inactive)
COc1cc(CC2C(=O)N(C)C(=O)N(C)C2=O)ccc1OCc1ccccc1,AC50,[8],7.97 µM (active)
CC1=C(C(=O)NC2CCCc3c2cnn3-c2cccc(C)c2C)OCCO1 (stereo not given),EC50,HEK293 [5],5.36 µM (active)
same,AC50,[12],34.1 µM (active)
same,IC50,[13],4.06 µM (active)
same,EC50,[14],> 20 µM (inactive)
same,AC50,[15],3.14 µM (active)
same,AC50,[16],3.49 µM (active)
same,IC50,HEK293 [17],> 20 µM (inactive)
same,IC50,HEK293 [7],11.6 µM (inactive)
COCCn1c(=N)c(S(=O)(=O)c2ccc(Br)cc2)cc2c(=O)n3ccccc3nc21,EC50,[18],> 300 µM (inconclusive)
same,IC50,[9],> 79.4 µM (inactive)
same,EC50,[19],4.16 µM (active)
same,IC50,[10],> 79.4 µM (inactive)
same,IC50,[11],> 79.4 µM (inactive)
COc1ccc(-c2cc(C(=O)NCCc3ccc(O)c(O)c3)c3ccccc3n2)cc1,IC50,[20],> 100 µM (inactive)
same,IC50,[21],> 100 µM (inactive)
CCOc1ccc(-n2c(SCC(=O)c3ccc(O)c(O)c3)nnc2-c2ccc(OC)cc2)cc1,IC50,[20],> 100 µM (inactive)
same,IC50,[21],> 100 µM (inactive)
